Experimental data published in patent US20050009924A1 (priority 2003, published 2005).

Tests used:
human hepatoma G2 cells = experiment: Cytotoxicity assay (XTT colorimetric), Hep G2; type: cell-based; conditions: Homo sapiens, HepG2; 48 h of drug exposure
rat glioma C6 cells = experiment: Cytotoxicity assay (XTT colorimetric), C6 cells; type: cell-based; conditions: Rattus norvegicus, C6; 48 h of drug exposure
[1] = system: transcriptional activity of hTERT; experiment: SEAP reporter assay of hTERT expression, PhTERT-SEAP (hTERT-BJ1); type: cell-based, human
Summary of the method: (§1)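 SEAP activity, read as rate of 405 nm absorbance rise with 12 mM p-nitrophenyl phosphate in diethanolamine/MgCl2/homoarginine buffer after 65 °C, 10 min heat inactivation, reports hTERT or CMV promoter activity. G418-selected stable H1299 or hTERT-BJ1 reporter lines were exposed to drug for 24 h.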

[2] = system: transcriptional activity of hTERT; experiment: SEAP reporter assay of hTERT expression, PhTERT-SEAP (H1299); type: cell-based, human
Summary of the method: as §1

[3] = MTT relative viability, PhTERT-SEAP (H1299) cells; conditions: human
[4] = MTT relative viability, PhTERT-SEAP (hTERT-BJ1) cells; conditions: human
[5] = system: iron-induced lipid peroxidation in rat brain homogenates; experiment: Iron-induced lipid peroxidation in rat brain homogenates; conditions: 10 mM; mean percent inhibition (Table 3)
[6] = system: hepatitis B virus transfected hepatoma cell lines, HepG 2.2.15 cells; experiment: Cytotoxicity assay, 2.2.15 cells; type: cell-based, human; conditions: Homo sapiens, HepG2.2.15; 48 h of drug exposure
[7] = hTERT-BJ1 cells, stable PhTERT-SEAP reporter clone

## CCCC(=O)Oc1cccc2c1C(=O)c1cccc(OC(=O)CCC)c1C2=O [IIIb, 1,5-Bis(butyryloxy)-anthraquinone]
Human hepatoma G2 cells
  IC50: 0.02 ± 0.01 µM
Rat glioma C6 cells
  IC50: 38.5 ± 2.8 µM
[1]; Homo sapiens, 2.6 μM, hTERT-BJ1, read-out: Relative SEAP activity (%)
  activity at 2.6 µM: 107 ± 11.9%
[1]; Homo sapiens, 26 μM, hTERT-BJ1, read-out: Relative SEAP activity (%)
  activity at 26 µM: 119 ± 8.3%
[1]; Homo sapiens, 260 μM, hTERT-BJ1, read-out: Relative SEAP activity (%)
  activity at 260 µM: 134 ± 3.8%
[2]; Homo sapiens, NCI-H1299, 2.6 μM, H1299, read-out: Relative SEAP activity (%)
  activity at 2.6 µM: 114 ± 7.9%
[2]; Homo sapiens, NCI-H1299, 26 μM, H1299, read-out: Relative SEAP activity (%)
  activity at 26 µM: 118 ± 8.4%
[2]; Homo sapiens, NCI-H1299, 260 μM, H1299, read-out: Relative SEAP activity (%)
  activity at 260 µM: 111 ± 4.4%
other
  melting point: 211 to 213 °C
[3]
  viability at 48 h, 2.6 µM: 107 ± 5.6%
  viability at 48 h, 26 µM: 106 ± 3.2%
  viability at 48 h, 260 µM: 87 ± 6.5%
[4]
  viability at 48 h, 2.6 µM: 109 ± 5.1%
  viability at 48 h, 26 µM: 106 ± 5.6%
  viability at 48 h, 260 µM: 85 ± 6.6%
[5]
  Inhibition of LP(10 mM): 54 ± 2.2%

## CCCCCC(=O)Oc1cccc2c1C(=O)c1cccc(OC(=O)CCCCC)c1C2=O [IIIc, 1,5-Bis(hexanoyloxy)-anthraquinone]
Human hepatoma G2 cells
  IC50: 36.2 ± 2.5 µM
Rat glioma C6 cells
  IC50: 39.1 ± 4.1 µM
[1]; Homo sapiens, 2.3 μM, hTERT-BJ1, read-out: Relative SEAP activity (%)
  activity at 2.3 µM: 147 ± 18.8%
[1]; Homo sapiens, 23 μM, hTERT-BJ1, read-out: Relative SEAP activity (%)
  activity at 23 µM: 149 ± 16.1%
[1]; Homo sapiens, 230 μM, hTERT-BJ1, read-out: Relative SEAP activity (%)
  activity at 230 µM: 124 ± 5.3%
[2]; Homo sapiens, NCI-H1299, 2.3 μM, H1299, read-out: Relative SEAP activity (%)
  activity at 2.3 µM: 91 ± 9.9%
[2]; Homo sapiens, NCI-H1299, 23 μM, H1299, read-out: Relative SEAP activity (%)
  activity at 23 µM: 95 ± 17.4%
[2]; Homo sapiens, NCI-H1299, 230 μM, H1299, read-out: Relative SEAP activity (%)
  activity at 230 µM: 95 ± 10.5%
other
  melting point: 183 to 184 °C
[3]
  viability at 48 h, 2.3 µM: 117 ± 5.1%
  viability at 48 h, 23 µM: 114 ± 4.7%
  viability at 48 h, 230 µM: 106 ± 4.3%
[4]
  viability at 48 h, 2.3 µM: 119 ± 9.4%
  viability at 48 h, 23 µM: 98 ± 13.4%
[4]; [7]
  viability at 48 h, 230 µM: 62 ± 6.4%
[5]
  Inhibition of LP(10 mM): −55 ± 1.5^ %

## O=C(Cc1cccs1)Nc1ccc(NC(=O)Cc2cccs2)c2c1C(=O)c1ccccc1C2=O [VI25, 1,4-Bis(2-thiopheneacetamido)-9,10-anthracenedione]
Human hepatoma G2 cells
  IC50: > 20 µM
Rat glioma C6 cells
  IC50: > 20 µM
[6]
  IC50: 15.5 µM
[1]; 2.0 μM, PhTERT-SEAP (hTERT-BJ1)
  SEAP/vibility: 0.45
[1]; 20 μM, PhTERT-SEAP (hTERT-BJ1)
  SEAP/vibility: 0.38
[1]; 205 μM, PhTERT-SEAP (hTERT-BJ1)
  SEAP/vibility: 0.19
[1]; Homo sapiens, 2.0 μM, PhTERT-SEAP (hTERT-BJ1), read-out: Relative SEAP activity (%)
  activity at 2 µM: 53 ± 17.4%
[1]; Homo sapiens, 20 μM, PhTERT-SEAP (hTERT-BJ1), read-out: Relative SEAP activity (%)
  activity at 20 µM: 40 ± 12.7%
[1]; Homo sapiens, 205 μM, PhTERT-SEAP (hTERT-BJ1), read-out: Relative SEAP activity (%)
  activity at 205 µM: 14 ± 24.1%
[2]; 2.0 μM, PhTERT-SEAP(hTERT-H1299)
  SEAP/vibility: 1.06
[2]; 20 μM, PhTERT-SEAP(hTERT-H1299)
  SEAP/vibility: 1.39
[2]; 205 μM, PhTERT-SEAP(hTERT-H1299)
  SEAP/vibility: 2.47
[2]; Homo sapiens, NCI-H1299, 2.0 μM, PhTERT-SEAP(hTERT-H1299), read-out: Relative SEAP activity (%)
  activity at 2 µM: 111 ± 3.7%
[2]; Homo sapiens, NCI-H1299, 20 μM, PhTERT-SEAP(hTERT-H1299), read-out: Relative SEAP activity (%)
  activity at 20 µM: 115 ± 4.3%
[2]; Homo sapiens, NCI-H1299, 205 μM, PhTERT-SEAP(hTERT-H1299), read-out: Relative SEAP activity (%)
  activity at 205 µM: 102 ± 5.5%
other
  melting point: 158 to 160 °C
[3]
  viability at 48 h, 2 µM: 104 ± 8%
  viability at 48 h, 20 µM: 83 ± 6.6%
  viability at 48 h, 205 µM: 41 ± 4%
[4]; hTERT-BJ1 cells stably transfected with PhTERT-SEAP reporter
  viability at 48 h, 205 µM: 76 ± 6.5%
[4]; [7]
  viability at 48 h, 2 µM: 116 ± 7.5%
  viability at 48 h, 20 µM: 105 ± 4.4%
